From patent US8362065B2, “Carbazole carboxamide compounds useful as kinase inhibitors” (Bristol-Myers Squibb Company, priority 2008, dated 2013)
Counter-ions that a name gives are not always drawn.

Molecular target: T1, human recombinant Btk (Homo sapiens, UniProt Q06187)
T1 construct: purchased Invitrogen Corporation
Experiment: Human Recombinant Btk Enzyme Assay
Assay type: biochemical
Conditions: human recombinant Btk 1 nM, ATP 20 μM, 60 min at room temperature; read-out: IC50 for Inhibition of Btk

T1 sequence (Q06187 whole entry): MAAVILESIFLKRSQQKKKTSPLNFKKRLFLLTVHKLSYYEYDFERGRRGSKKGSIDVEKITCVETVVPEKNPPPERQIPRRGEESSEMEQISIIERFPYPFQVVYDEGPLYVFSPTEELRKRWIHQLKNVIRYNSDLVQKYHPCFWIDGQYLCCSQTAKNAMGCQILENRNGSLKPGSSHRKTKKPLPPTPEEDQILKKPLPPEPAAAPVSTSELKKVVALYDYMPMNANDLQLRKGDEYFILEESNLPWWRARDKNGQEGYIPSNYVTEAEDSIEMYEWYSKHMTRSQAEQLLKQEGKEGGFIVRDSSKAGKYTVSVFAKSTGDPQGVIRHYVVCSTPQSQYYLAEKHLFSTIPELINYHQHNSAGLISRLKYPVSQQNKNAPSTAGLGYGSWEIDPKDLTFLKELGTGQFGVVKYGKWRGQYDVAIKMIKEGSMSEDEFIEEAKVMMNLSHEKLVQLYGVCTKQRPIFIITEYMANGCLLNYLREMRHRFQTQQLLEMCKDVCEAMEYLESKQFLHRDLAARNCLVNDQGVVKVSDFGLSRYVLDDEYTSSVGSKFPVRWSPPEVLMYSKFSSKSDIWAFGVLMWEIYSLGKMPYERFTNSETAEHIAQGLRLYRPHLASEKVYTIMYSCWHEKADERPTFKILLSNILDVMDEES

| Compound | IC50 |
| --- | --- |
| Cc1c(NC(=O)c2ccc(F)cc2)cccc1-c1ccc(C(N)=O)c2[nH]c3cc(NC(=O)CCN4CCOCC4)ccc3c12 [Example 57-18] | 2.2 nM |
| Cc1c(-c2ccc(C(N)=O)c3[nH]c4cc(O)ccc4c23)cccc1N1Cc2ccccc2C1=O [Example 41-1, 7-hydroxy-4-(2-methyl-3-(1-oxoisoindolin-2-yl)phenyl)-9H-carbazole-1-carboxamide] | 16 nM |
| Cc1c(-c2ccc(C(N)=O)c3[nH]c4cc(NC(=O)C(C)(C)C)ccc4c23)cccc1N1Cc2cc(F)ccc2C1=O [Example 66-34] | 16 nM |
| Cc1c(-c2ccc(C(N)=O)c3[nH]c4c(c23)CCC(C(=O)NCCCN(C)C)C4)cccc1N1Cc2ccccc2C1=O (stereo not shown) [Example 3-101] | 18 nM |
| Cc1ccc(C(=O)Nc2cccc(-c3ccc(C(N)=O)c4[nH]c5cc(C(=O)N6CCN(C)CC6)ccc5c34)c2C)cc1 [Example 5-58, 4-(2-methyl-3-(4-methylbenzamido)phenyl)-7-(4-methylpiperazine-1-carbonyl)-9H-carbazole-1-carboxamide (prepared as the TFA salt)] | 2.2 nM |
| Cc1c(NC(=O)c2ccc(F)cc2)cccc1-c1ccc(C(N)=O)c2[nH]c3cc(NC(=O)c4ccc(C#N)cc4)ccc3c12 [Example 57-20] | 15 nM |
| CN1CCN(C(=O)c2ccc3c(c2)[nH]c2c(C(N)=O)ccc(-c4cccc5cccnc45)c23)CC1 [Example 3-19] | 1800 nM |
| Cc1c(NC(=O)c2ccc(F)cc2)cccc1-c1ccc(C(N)=O)c2[nH]c3cc(NC(=O)[C@H](C)N)ccc3c12 [Example 57-3, 7-((S)-2-aminopropanamido)-4-(3-(4-fluorobenzamido)-2-methylphenyl)-9H-carbazole-1-carboxamide] | 2.1 nM |
| Cc1ccc2c(c1)C(=O)N(c1cccc(-c3ccc(C(N)=O)c4[nH]c5cc(N6CCC(C)(C)C6=O)ccc5c34)c1C)C2 [Example 66-37] | 15 nM |
| Cc1c(NC(=O)c2ccc(F)cc2)cccc1-c1ccc(C(N)=O)c2[nH]c3cc(NC(=O)CCCN4CCOCC4)ccc3c12 [Example 57-16] | 2.1 nM |
| CN1CCN(C(=O)c2ccc3c(c2)[nH]c2c(C(N)=O)ccc(N4CCCCC4=O)c23)CC1 [Example 20-1, 7-(4-methylpiperazine-1-carbonyl)-4-(2-oxopiperidin-1-yl)-9H-carbazole-1-carboxamide] | 510 nM |
| NC(=O)c1ccc(-c2ccccc2F)c2c1[nH]c1ccc(Oc3ccccc3)cc12 [Example 48-2] | 1700 nM |
| Cc1c(NC(=O)C(C)(C)c2ccc(Cl)cc2)cccc1-c1ccc(C(N)=O)c2[nH]c3cc(C(=O)N4CCN(C)CC4)ccc3c12 [Example 5-44] | 16 nM |
| Cc1c(NC(=O)c2ncccc2O)cccc1-c1ccc(C(N)=O)c2[nH]c3cc(C(=O)N4CCN(C)CC4)ccc3c12 [Example 5-19, 4-(3-(3-hydroxypicolinamido)-2-methylphenyl)-7-(4-methylpiperazine-1-carbonyl)-9H-carbazole-1-carboxamide (prepared as the TFA salt)] | 17 nM |
| Cc1c(-c2ccc(C(N)=O)c3[nH]c4cc(CNC(=O)CO)ccc4c23)cccc1N1Cc2ccccc2C1=O [Example 34-2, 7-((2-hydroxyacetamido)methyl)-4-(2-methyl-3-(1-oxoisoindolin-2-yl)phenyl)-9H-carbazole-1-carboxamide] | 2 nM |
| NC(=O)c1ccc(-c2ccccc2F)c2c3c([nH]c12)CCC(Oc1ccccc1)C3 (stereo not shown) [Example 47-2, 5-(2-fluorophenyl)-3-phenoxy-2,3,4,9-tetrahydro-1H-carbazole-8-carboxamide] | 4200 nM |

Results, then the compound that gave them:

| IC50 | Compound |
| --- | --- |
| 1 nM | Cc1c(-c2ccc(C(N)=O)c3[nH]c4cc(C(O)CO)ccc4c23)cccc1N1Cc2ccc(F)cc2C1=O (stereo not shown) [Example 70-10] |
| 1.9 nM | Cc1c(NC(=O)c2nccs2)cccc1-c1ccc(C(N)=O)c2[nH]c3cc(N4CCN(C)CC4)ccc3c12 [Example 77-2, N-(3-(1-carbamoyl-7-(4-methylpiperazin-1-yl)-9H-carbazol-4-yl)-2-methylphenyl)thiazole-2-carboxamide] |
| 1.8 nM | Cc1c(-c2ccc(C(N)=O)c3[nH]c4cc(C(C)(C)O)ccc4c23)cccc1N1Cc2ccncc2C1=O [Example 76-18] |
| 1.9 nM | Cc1c(-c2ccc(C(N)=O)c3[nH]c4cc(NC(C)C)ccc4c23)cccc1-n1ccn2ccnc2c1=O [Example 80-1, 7-(isopropylamino)-4-(2-methyl-3-(8-oxoimidazo[1,2-a]pyrazin-7(8H)-yl)phenyl)-9H-carbazole-1-carboxamide] |
| 0.8 nM | Cc1c(-c2ccc(C(N)=O)c3[nH]c4cc(C(O)CO)ccc4c23)cccc1N1Cc2ccc(F)cc2C1=O (racemic) [Example 70-6, 7-((RS)-1,2-dihydroxyethyl)-4-(3-(6-fluoro-1-oxoisoindolin-2-yl)-2-methylphenyl)-9H-carbazole-1-carboxamide] |

System: Ramos RA1 B cells
Experiment: Ramos FLIPR Assay
Assay type: cell-based
Conditions: goat anti-human IgM 2.5 μg/mL, peak intracellular calcium, read-out: IC50 for Inhibition of Ramos FLIPR assay

| Compound | IC50 |
| --- | --- |
| Cc1c(-c2ccc(C(N)=O)c3[nH]c4cc(N5CCNC5=O)ccc4c23)cccc1N1Cc2cc(F)ccc2C1=O [Example 66-14] | 260 nM |
| Cc1ccc2c(c1)CN(c1cccc(-c3ccc(C(N)=O)c4[nH]c5cc(N6CCCC6=O)ccc5c34)c1C)C2=O [Example 66-5] | 260 nM |
| Cc1ccc2c(c1)CN(c1cncc(-c3ccc(C(N)=O)c4[nH]c5cc(N6CCOC6=O)ccc5c34)c1C)C2=O [Example 66-40] | 270 nM |
| Cc1ccc(NC(=O)Nc2cccc(-c3ccc(C(N)=O)c4[nH]c5cc(C(=O)N6CCN(C)CC6)ccc5c34)c2C)cc1C [Example 8-1, 4-(3-(3-(3,4-dimethylphenyl)ureido)-2-methylphenyl)-7-(4-methylpiperazine-1-carbonyl)-9H-carbazole-1-carboxamide] | 5400 nM |
| CN1CCN(C(=O)c2ccc3c(c2)[nH]c2c(C(N)=O)ccc(-c4c(F)cc(NC(=O)c5ccc(F)cc5)cc4F)c23)CC1 [Example 5-48] | 1400 nM |
| Cc1c(-c2ccc(C(N)=O)c3[nH]c4cc(NC(=O)C5CC5)ccc4c23)cccc1N1Cc2ccccc2C1=O [Example 66-39] | 260 nM |
| Cc1c(-c2ccc(C(N)=O)c3[nH]c4cc(N5CCCC5=O)ccc4c23)cccc1N1Cc2ccccc2C1=O [Example 62-1, 4-(2-methyl-3-(1-oxoisoindolin-2-yl)phenyl)-7-(2-oxopyrrolidin-1-yl)-9H-carbazole-1-carboxamide] | 250 nM |

More lines, now with the values ahead:

| IC50 | Compound |
| --- | --- |
| 16 nM | Cc1cn2ccn(-c3cccc(-c4ccc(C(N)=O)c5[nH]c6cc(NC(C)C)ccc6c45)c3C)c(=O)c2n1 [Example 80-2] |
| 14 nM | Cc1c(/N=C2\OCc3ccncc32)cccc1-c1ccc(C(N)=O)c2[nH]c3cc(C(C)(C)OCCO)ccc3c12 [Example 76-49] |
| 260 nM | Cc1ccc2ncn(-c3cccc(-c4ccc(C(N)=O)c5[nH]c6c(c45)CCC(C(C)(C)O)C6)c3C)c(=O)c2c1 (stereo not shown) [Example 76-43] |
| 15 nM | Cc1c(Nc2ncnc3c(F)cccc23)cccc1-c1ccc(C(N)=O)c2[nH]c3cc(C(C)(C)O)ccc3c12 [Example 81-1, 4-(3-(8-fluoroquinazolin-4-ylamino)-2-methylphenyl)-7-(2-hydroxypropan-2-yl)-9H-carbazole-1-carboxamide] |
| 18 nM | Cc1c(-c2ccc(C(N)=O)c3[nH]c4cc(C(C)(C)O)ccc4c23)cccc1-n1cnc2cccc(F)c2c1=O [Example 76-26] |
| 240 nM | Cc1c(/N=C2\OCc3ccncc32)cccc1-c1ccc(C(N)=O)c2[nH]c3c(c12)CCC(C(C)(C)O)C3 (stereo not shown) [Example 76-7] |
